Data reported in patent US20080153850A1, “Adamantyl Derivates as P2x7 Receptor Antagonists” (AstraZeneca AB, priority 2004, published 2008).

| Compound | melting point |
| --- | --- |
| O=C(O)Cc1ccccc1-c1ccc(Cl)c(C(=O)NCC23CC4CC(CC(C4)C2)C3)c1 [Example 37, 4′-Chloro-3′-[[(tricyclo[3.3.1.1^3,7]dec-1-ylmethyl)amino]carbonyl]-[1,1′-biphenyl]-2-acetic acid] | 200 to 202 °C |
| O=C(O)COc1cccc(-c2ccc(Cl)c(C(=O)NCC34CC5CC(CC(C5)C3)C4)c2)c1 [Example 38, [[4′-Chloro-3′-[[(tricyclo[3.3.1.1^3,7]dec-1-ylmethyl)amino]carbonyl][1,1′-biphenyl]-3-yl]oxy]-acetic acid] | 99 to 101 °C |
| C[C@@H](Oc1ccccc1-c1ccc(Cl)c(C(=O)NCC23CC4CC(CC(C4)C2)C3)c1)C(=O)O [Example 39, (2R)-2-[[4′-Chloro-3′-[[(tricyclo[3.3.1.1^3,7]dec-1-ylmethyl)amino]carbonyl][1,1′-biphenyl]-2-yl]oxy]-propanoic acid] | 133 to 137 °C |
| O=C(O)COc1ccc(-c2ccc(Cl)c(C(=O)NCC34CC5CC(CC(C5)C3)C4)c2)cc1 [Example 40, [[4′-Chloro-3′-[[(tricyclo[3.3.1.1^3,7]dec-1-ylmethyl)amino]carbonyl][1,1′-biphenyl]-4-yl]oxy]-acetic acid] | 136 to 140 °C |
| C[C@H](Oc1cccc(-c2ccc(Cl)c(C(=O)NCC34CC5CC(CC(C5)C3)C4)c2)c1)C(=O)O [Example 41, (2S)-2-[[4′-Chloro-3′-[[(tricyclo[3.3.1.1^3,7]dec-1-ylmethyl)amino]carbonyl][1,1′-biphenyl]-3-yl]oxy]-propanoic acid] | 115 to 120 °C |
| O=C(NCC12CC3CC(CC(C3)C1)C2)c1cc(-c2ccc(Cl)cc2C(=O)O)ccc1Cl [Example 42, 4,4′-Dichloro-3′-[[(tricyclo[3.3.1.1^3,7]dec-1-ylmethyl)amino]carbonyl]-[1,1′-biphenyl]-2-carboxylic acid] | 207 to 210 °C |
| C[C@H](Oc1ccc(-c2ccc(Cl)c(C(=O)NCC34CC5CC(CC(C5)C3)C4)c2)cc1)C(=O)O [Example 43, (2S)-2-[[4′-Chloro-3′-[[(tricyclo[3.3.1.1^3,7]dec-1-ylmethyl)amino]carbonyl][1,1′-biphenyl]-4-yl]oxy]-propanoic acid] | 145 to 150 °C |
| O=C(NCC12CC3CC(CC(C3)C1)C2)c1cc(-c2ccc(Cl)c(C(=O)O)n2)ccc1Cl [Example 44, 3-Chloro-6-[4-chloro-3-[[(tricyclo[3.3.1.1^3,7]dec-1-ylmethyl)amino]carbonyl]phenyl]-2-pyridinecarboxylic acid] | 154 to 159 °C |
| O=C(O)COc1cccnc1-c1ccc(Cl)c(C(=O)NCC23CC4CC(CC(C4)C2)C3)c1 [Example 46, [[2-[4-Chloro-3-[[(tricyclo[3.3.1.1^3,7]dec-1-ylmethyl)amino]carbonyl]phenyl]-3-pyridinyl]oxy]-acetic acid] | 133 to 137 °C |
| O=C(O)CNc1cccnc1-c1ccc(Cl)c(C(=O)NCC23CC4CC(CC(C4)C2)C3)c1 [Example 47, N-[2-[4-Chloro-3-[[(tricyclo[3.3.1.1^3,7]dec-1-ylmethyl)amino]carbonyl]phenyl]-3-pyridinyl]-glycine] | 190 to 194 °C |
| O=C(NCC12CC3CC(CC(C3)C1)C2)c1cc(-c2cc(F)c(F)cc2C(=O)O)ccc1Cl [Example 48, 4′-Chloro-4,5-difluoro-3′-[[(tricyclo[3.3.1.1^3,7]dec-1-ylmethyl)amino]carbonyl]-[1,1′-biphenyl]-2-carboxylic acid] | 121 to 125 °C |
| O=C(NCCC12CC3CC(CC(C3)C1)C2)c1cc(-c2ccccc2C(=O)O)ccc1Cl [Example 49, 4′-Chloro-3′-[[(2-tricyclo[3.3.1.1^3,7]dec-1-ylethyl)amino]carbonyl]-[1,1′-biphenyl]-2-carboxylic acid] | 114 to 117 °C |
| O=C(NCCC12CC3CC(CC(C3)C1)C2)c1cc(-c2cccnc2C(=O)O)ccc1Cl [Example 50, 3-[4-Chloro-3-[[(2-tricyclo[3.3.1.1^3,7]dec-1-ylethyl)amino]carbonyl]phenyl]-2-pyridinecarboxylic acid] | 108 to 111 °C |
| O=C(NCC12CC3CC(CC(C3)C1)C2)c1cc(-c2ccc(F)cc2C(=O)O)ccc1Cl [Example 51, 4′-Chloro-4-fluoro-3′-[[(tricyclo[3.3.1.1^3,7]dec-1-ylmethyl)amino]carbonyl]-[1,1′-biphenyl]-2-carboxylic acid] | 126 to 128 °C |
| O=C(NCC12CC3CC(CC(C3)C1)C2)c1cc(-c2ccccc2C(=O)O)ncc1Cl [Example 52, 2-[5-Chloro-4-[[(tricyclo[3.3.1.1^3,7]dec-1-ylmethyl)amino]carbonyl]-2-pyridinyl]-benzoic acid] | 134 to 138 °C |
| Cc1ccnc(-c2ccc(Cl)c(C(=O)NCC34CC5CC(CC(C5)C3)C4)c2)c1C(=O)O [Example 53, 2-[4-Chloro-3-[[(tricyclo[3.3.1.1^3,7]dec-1-ylmethyl)amino]carbonyl]phenyl]-4-methyl-3-pyridinecarboxylic acid] | 177 to 180 °C |

| Compound | melting point |
| --- | --- |
| CN(CCO)c1nc(-c2ccc(Cl)c(C(=O)NCC34CC5CC(CC(C5)C3)C4)c2)ccc1C(=O)O [Example 54, 6-[4-Chloro-3-[[(tricyclo[3.3.1.1^3,7]dec-1-ylmethyl)amino]carbonyl]phenyl]-2-[(2-hydroxyethyl)methylamino]-3-pyridinecarboxylic acid] | 121 to 124 °C |
| Cc1ccc(-c2cccnc2C(=O)O)cc1C(=O)NCC12CC3CC(CC(C3)C1)C2 [Example 55, 3-[4-Methyl-3-[[(tricyclo[3.3.1.1^3,7]dec-1-ylmethyl)amino]carbonyl]phenyl]-2-pyridinecarboxylic acid] | 181 to 183 °C |
| Cc1nn(C)c(C(=O)O)c1-c1ccc(Cl)c(C(=O)NCC23CC4CC(CC(C4)C2)C3)c1 [Example 56, 4-[4-Chloro-3-[[(tricyclo[3.3.1.1^3,7]dec-1-ylmethyl)amino]carbonyl]phenyl]-1,3-dimethyl-1H-pyrazole-5-carboxylic acid] | 207 °C |
| O=C(NCC12CC3CC(CC(C3)C1)C2)c1cc(-c2cccnc2N2CCC(C(=O)O)CC2)ccc1Cl [Example 59, 1-[3-[4-Chloro-3-[[(tricyclo[3.3.1.1^3,7]dec-1-ylmethyl)amino]carbonyl]phenyl]-2-pyridinyl]-4-piperidinecarboxylic acid] | 110 to 115 °C |
| O=C(NCC12CC3CC(CC(C3)C1)C2)c1cc(-c2cccnc2N2CCC[C@H]2C(=O)O)ccc1Cl [Example 60, 1-[3-[4-Chloro-3-[[(tricyclo[3.3.1.1^3,7]dec-1-ylmethyl)amino]carbonyl]phenyl]-2-pyridinyl]-L-proline] | 121 to 125 °C |
| O=C(NCC12CC3CC(CC(C3)C1)C2)c1cc(-c2cccnc2N2CCCC(C(=O)O)C2)ccc1Cl (centres unmarked) [Example 61, 1-[3-[4-Chloro-3-[[(tricyclo[3.3.1.1^3,7]dec-1-ylmethyl)amino]carbonyl]phenyl]-2-pyridinyl]-3-piperidinecarboxylic acid] | 125 to 130 °C |
| O=C(NCC12CC3CC(CC(C3)C1)C2)c1cc(-c2cccnc2N2CC(C(=O)O)C2)ccc1Cl [Example 62, 1-[3-[4-Chloro-3-[[(tricyclo[3.3.1.1^3,7]dec-1-ylmethyl)amino]carbonyl]phenyl]-2-pyridinyl]-3-azetidinecarboxylic acid] | 145 to 150 °C |
| Cc1ccc(-c2ccc(Cl)c(C(=O)NCC34CC5CC(CC(C5)C3)C4)c2)c(C(=O)O)n1 [Example 63, 3-[4-Chloro-3-[[(tricyclo[3.3.1.1^3,7]dec-1-ylmethyl)amino]carbonyl]phenyl]-6-methyl-2-pyridinecarboxylic acid] | 125 to 130 °C |
| Cc1cnc(C(=O)O)c(-c2ccc(Cl)c(C(=O)NCC34CC5CC(CC(C5)C3)C4)c2)c1 [Example 64, 3-[4-Chloro-3-[[(tricyclo[3.3.1.1^3,7]dec-1-ylmethyl)amino]carbonyl]phenyl]-5-methyl-2-pyridinecarboxylic acid] | 125 to 130 °C |
| O=C(NCC12CC3CC(CC(C3)C1)C2)c1cc(-c2cccnc2N2CCC(O)(C(=O)O)CC2)ccc1Cl [Example 65, 1-[3-[4-Chloro-3-[[(tricyclo[3.3.1.1^3,7]dec-1-ylmethyl)amino]carbonyl]phenyl]-2-pyridinyl]-4-hydroxy-4-piperidinecarboxylic acid] | 145 to 150 °C |
| O=C(NCC12CC3CC(CC(C3)C1)C2)c1cc(-c2cc(F)cnc2N2CCC(C(=O)O)CC2)ccc1Cl [Example 66, 1-[3-[4-Chloro-3-[[(tricyclo[3.3.1.1^3,7]dec-1-ylmethyl)amino]carbonyl]phenyl]-5-fluoro-2-pyridinyl]-4-piperidinecarboxylic acid] | 130 to 135 °C |
| Cc1ccc(-c2ccccc2C(=O)O)cc1C(=O)NCC12CC3CC(CC(C3)C1)C2 [Example 67, 4′-Methyl-3′-[[(tricyclo[3.3.1.1^3,7]dec-1-ylmethyl)amino]carbonyl]-[1,1′-biphenyl]-2-carboxylic acid] | 85 to 92 °C |
| Cc1ccc(-c2cccnc2N2CCC(C(=O)O)CC2)cc1C(=O)NCC12CC3CC(CC(C3)C1)C2 [Example 68, 1-[3-[4-Methyl-3-[[(tricyclo[3.3.1.1^3,7]dec-1-ylmethyl)amino]carbonyl]phenyl]-2-pyridinyl]-4-piperidinecarboxylic acid] | 60 °C |
| Cc1ccc(-c2cccc(C(=O)O)n2)cc1C(=O)NCC12CC3CC(CC(C3)C1)C2 [Example 69, 6-[4-Methyl-3-[[(tricyclo[3.3.1.1^3,7]dec-1-ylmethyl)amino]carbonyl]phenyl]-2-pyridinecarboxylic acid] | 227 °C |
| O=C(NCC12CC3CC(CC(C3)C1)C2)c1cc(-c2ccncc2C(=O)O)ccc1Cl [Example 70, 4-[4-Chloro-3-[[(tricyclo[3.3.1.1^3,7]dec-1-ylmethyl)amino]carbonyl]phenyl]-3-pyridinecarboxylic acid] | 104 to 107 °C |
| Cc1ccc(-c2ccc(Cl)c(C(=O)NCC34CC5CC(CC(C5)C3)C4)c2)nc1C(=O)O [Example 71, 6-[4-Chloro-3-[[(tricyclo[3.3.1.1^3,7]dec-1-ylmethyl)amino]carbonyl]phenyl]-3-methyl-2-pyridinecarboxylic acid] | 180 to 185 °C |
